Experimental data as given in PubChem BioAssay AID624491 (Broad Institute, 2012).

The compounds below were run on D54 ERlucT glycosylation luciferase reporter, luminescence, 24 h (assay: blockers of NLG process in reporter cells – D54 ERlucT cells, luminescence, cherry-picks, dose response (AID 624491);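 further: signal gain reflects blocked N-linked glycosylation of a luciferase reporter; actives raise luciferase signal so AC26 marks activators of the reporter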).

In order of falling AC26:
1. Clc1cccc(Cl)c1Cn1cnc2c(NCc3ccco3)ncnc21  17.3 µM
2. CCOC(=O)/C(=C/c1c(C)n(C)c2ccc([N+](=O)[O-])cc12)C(C)=O  4.23 µM
3. Cc1cc(Br)cc2c(C(=O)Nc3c(C)n(C)n(-c4ccccc4)c3=O)cc(-c3cccs3)nc12  3.65 µM
4. COc1ccc(OC)c(S(=O)(=O)Nc2ccc3c(c2)n(C)c(=O)n3C)c1  3.32 µM
5. C=CCOc1ccc2nc(NC(=O)OC)[nH]c2c1  0.414 µM
